For five compounds, IC50 results are on record in patent publication EP3436445B1, “HISTONE DEMETHYLASE INHIBITORS” (Celgene Quanticel Research, Inc., priority 2016, dated 2017).

Each structure is given as a SMILES string.

The assay deals with T1, FBXL10 (Homo sapiens, UniProt Q8NHM5).
T1 construct: purchased BPS Bioscience 50120
T1 sequence (Q8NHM5 1-650): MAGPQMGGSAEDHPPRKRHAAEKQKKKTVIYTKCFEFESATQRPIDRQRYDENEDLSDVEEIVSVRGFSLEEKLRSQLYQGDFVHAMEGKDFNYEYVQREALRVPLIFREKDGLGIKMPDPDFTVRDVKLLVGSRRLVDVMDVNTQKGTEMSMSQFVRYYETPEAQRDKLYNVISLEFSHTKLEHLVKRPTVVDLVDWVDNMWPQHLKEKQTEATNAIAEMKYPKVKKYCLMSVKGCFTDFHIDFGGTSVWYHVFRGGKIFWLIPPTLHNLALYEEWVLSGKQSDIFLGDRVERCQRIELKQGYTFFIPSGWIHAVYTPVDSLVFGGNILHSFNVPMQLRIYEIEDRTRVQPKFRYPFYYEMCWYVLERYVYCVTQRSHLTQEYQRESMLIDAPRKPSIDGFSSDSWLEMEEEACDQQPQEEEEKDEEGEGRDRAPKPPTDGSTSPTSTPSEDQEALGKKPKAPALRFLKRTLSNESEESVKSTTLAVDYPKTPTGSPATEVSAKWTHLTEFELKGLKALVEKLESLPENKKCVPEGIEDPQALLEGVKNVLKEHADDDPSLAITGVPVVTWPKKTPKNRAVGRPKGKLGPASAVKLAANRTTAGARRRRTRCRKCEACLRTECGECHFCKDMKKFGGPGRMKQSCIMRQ
The assay can be described thus: FBXL10 in vitro enzyme inhibition assay (AlphaScreen). Format: biochemical. The conditions noted are these: Table 5. In outline:
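Baculovirus-expressed FBXL10 (aa 1-650, 0.3 nM) reacted with 30 nM biotinylated H3K36me2 peptide and 0.2 µM α-ketoglutarate in HEPES pH 7.3 with ascorbate, Fe(II), TCEP and BSA for 1 h at room temperature, with 11-point inhibitor series. EDTA stopped the reaction. H3K36me1 product was read by AlphaScreen to give IC50.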
(Bead proximity is the source of the signal in Alpha formats.)
In general, IC50 refers to the concentration needed to halve the response being measured. `Cc1ccc2c(c1)CCCC2Cn1cnc(-c2cc(-c3nn[nH]c3C(F)(F)F)ccn2)c1` (centres unmarked) [Example 102, 2-{1-[(6-methyl-1,2,3,4-tetrahydronaphthalen-1-yl)methyl]-1H-imidazol-4-yl}-4-[5-(trifluoromethyl)-1H-1,2,3-triazol-4-yl]pyridine] displayed an IC50 of 1000 to 10000 nM.

`Cc1ccc2c(c1)C(Cn1cnc(-c3cc(-c4nn[nH]c4C(F)(F)F)ccn3)c1)CCC2` (centres unmarked) [Example 103, 2-{1-[(7-methyl-1,2,3,4-tetrahydronaphthalen-1-yl)methyl]-1H-imidazol-4-yl}-4-[5-(trifluoromethyl)-1H-1,2,3-triazol-4-yl]pyridine] returned an IC50 of 100 to 1000 nM.

In turn, `COc1ccc2c(c1)CCCC2Cn1cnc(-c2cc(-c3nn[nH]c3C(F)(F)F)ccn2)c1` (centres unmarked) [Example 105, 2-{1-[(6-methoxy-1,2,3,4-tetrahydronaphthalen-1-yl)methyl]-1H-imidazol-4-yl}-4-[5-(trifluoromethyl)-1H-1,2,3-triazol-4-yl]pyridine] came in with an IC50 of 100 to 1000 nM.

On to `COc1ccc2c(c1)C(Cn1cnc(-c3cc(-c4nn[nH]c4C(F)(F)F)ccn3)c1)CCC2` (centres unmarked) [Example 106, 2-{1-[(7-methoxy-1,2,3,4-tetrahydronaphthalen-1-yl)methyl]-1H-imidazol-4-yl}-4-[5-(trifluoromethyl)-1H-1,2,3-triazol-4-yl]pyridine], for which the IC50 is 100 to 1000 nM.

In turn, `COc1cccc2c1C(Cn1cnc(-c3cc(-c4nn[nH]c4C(F)(F)F)ccn3)c1)CCC2` (centres unmarked) [Example 107, 2-{1-[(8-methoxy-1,2,3,4-tetrahydronaphthalen-1-yl)methyl]-1H-imidazol-4-yl}-4-[5-(trifluoromethyl)-1H-1,2,3-triazol-4-yl]pyridine] showed an IC50 of 100 to 1000 nM.
